Experimental data taken from article PMC10972756, “A helical fulcrum in eIF2B coordinates allosteric regulation of stress signaling” (Nature Chemical Biology, 2023).
Values belong to the molecule of their own block, whether it stands above or below them.

Legend:
eIF2B(αβγδε)2 decamer [1] = target: T1, eIF2B(αβγδε)2 decamer (Homo sapiens, UniProt P49770+Q9UI10); assay: fluorescence polarization, eIF2B titration; type: binding; conditions: labelled compound; 2.5 nM FAM-ISRIB; 20 mM HEPES-KOH pH 7.5, 100 mM KCl, 5 mM MgCl2, 1 mM TCEP; 25 °C; ISRIB pocket; read-out: half-maximal effective concentration
T1 construct: gene EIF2B2; recombinant human eIF2Bα2 (pJT075) mixed with eIF2Bβγδε (pJT073 + pJT074 coexpression); heterodecamer; 2,369 unique amino acids; with Translation initiation factor eIF2B subunit alpha; Translation initiation factor eIF2B subunit gamma; Translation initiation factor eIF2B subunit epsilon

eIF2B(αβγδε)2 decamer [2] = target: T2, eIF2B(αβγδε)2 decamer (Homo sapiens, UniProt P49770+Q9UI10, Q9UI10:E445A); assay: fluorescence polarization, eIF2B titration; type: binding; conditions: labelled compound; 2.5 nM FAM-ISRIB; 20 mM HEPES-KOH pH 7.5, 100 mM KCl, 5 mM MgCl2, 1 mM TCEP; 25 °C; ISRIB pocket; read-out: half-maximal effective concentration
T2 construct: gene EIF2B2; recombinant human eIF2Bα2 (pJT075) mixed with eIF2Bβγδε (pJT073 + pJT074 coexpression); heterodecamer; 2,369 unique amino acids; with Translation initiation factor eIF2B subunit alpha; Translation initiation factor eIF2B subunit gamma; Translation initiation factor eIF2B subunit epsilon

eIF2B(αβγδε)2 decamer [3] = target: T3, eIF2B(αβγδε)2 decamer (Homo sapiens, UniProt P49770+Q9UI10, Q9UI10:F443A); assay: fluorescence polarization, eIF2B titration; type: binding; conditions: labelled compound; 2.5 nM FAM-ISRIB; 20 mM HEPES-KOH pH 7.5, 100 mM KCl, 5 mM MgCl2, 1 mM TCEP; 25 °C; ISRIB pocket; read-out: half-maximal effective concentration
T3 construct: gene EIF2B2; recombinant human eIF2Bα2 (pJT075) mixed with eIF2Bβγδε (pJT073 + pJT074 coexpression); heterodecamer; 2,369 unique amino acids; with Translation initiation factor eIF2B subunit alpha; Translation initiation factor eIF2B subunit gamma; Translation initiation factor eIF2B subunit epsilon

eIF2B(αβγδε)2 decamer [4] = target: T4, eIF2B(αβγδε)2 decamer (Homo sapiens, UniProt P49770+Q9UI10, Q9UI10:L516A); assay: fluorescence polarization, eIF2B titration; type: binding; conditions: labelled compound; 2.5 nM FAM-ISRIB; 20 mM HEPES-KOH pH 7.5, 100 mM KCl, 5 mM MgCl2, 1 mM TCEP; 25 °C; ISRIB pocket; read-out: half-maximal effective concentration
T4 construct: gene EIF2B2; recombinant human eIF2Bα2 (pJT075) mixed with eIF2Bβγδε (pJT073 + pJT074 coexpression); heterodecamer; 2,369 unique amino acids; with Translation initiation factor eIF2B subunit alpha; Translation initiation factor eIF2B subunit gamma; Translation initiation factor eIF2B subunit epsilon

eIF2B(αβγδε)2 decamer [5] = target: T1, eIF2B(αβγδε)2 decamer; assay: hydrogen-deuterium exchange mass spectrometry; type: binding; conditions: 20 mM HEPES, 200 mM KCl, 5 mM MgCl2, 1 mM TCEP, pH 7.9; ISRIB pocket, groove between eIF2Bβ and eIF2Bδ'; allosteric
[6] = target: the molecule itself; assay: cryo-EM structure; 20 µM eIF2Bδ^L516A βγδε incubated with 11 µM eIF2Bα2 in 20 mM HEPES-KOH, 200 mM KCl, 5 mM MgCl2, 1 mM TCEP; diluted to 750 nM for grids
eIF2Bβγδ^F443Aε tetramer = eIF2Bβγδ^F443Aε tetramer (human, UniProt P49770 2-351; Q9NR50 1-452; Q9UI10 1-523; Q13144 1-721, δF443A); assay: AUC; sedimentation velocity, 40,000 r.p.m., 20 °C, 20 mM HEPES-KOH pH 7.5, 150 mM KCl, 1 mM TCEP, 5 mM MgCl2; tetramer mixed with eIF2Bα2 (2:1 or 1:1 tetramer:dimer); continuous c(S) distribution; conditions: both partners purified
eIF2Bβγδ^E445Aε tetramer = eIF2Bβγδ^E445Aε tetramer (human, UniProt P49770 2-351; Q9NR50 1-452; Q9UI10 1-523; Q13144 1-721, δE445A); assay: as above; conditions: both partners purified

EC50 (eIF2B(αβγδε)2 decamer [1]): 38 ± 2 nM | EC50 (eIF2B(αβγδε)2 decamer [2]): 30 ± 2 nM | EC50 (eIF2B(αβγδε)2 decamer [3]): 50 ± 8 nM | EC50 (eIF2B(αβγδε)2 decamer [4]): 169 ± 34 nM
Molecule: FAM-ISRIB

Molecule: O=C(COc1ccc(Cl)c(F)c1)NC12CC(NC(=O)c3cnc(C(F)F)cn3)(C1)C2 [2BAct]
hydrogen-deuterium exchange mass spectrometry (eIF2B(αβγδε)2 decamer [5]): We also observed protection in peptides at the 2BAct binding site

binding result (eIF2Bβγδ^F443Aε tetramer): binds | binding result (eIF2Bβγδ^E445Aε tetramer): binds
B1: eIF2Bα2 dimer, wild type (complex, human)
chain: DDKELIEYFKSQMKEDPDMASAVAAIRTLLEFLKRDKGETIQGLRANLTSAIETLCGVDSSVAVSSGGELFLRFISLASLEYSDYSKCKKIMIERGELFLRRISLSRNKIADLCHTFIKDGATILTHAYSRVVLRVLEAAVAAKKRFSVYVTESQPDLSGKKMAKALCHLNVPVTVVLDAAVGYIMEKADLVIVGAEGVVENGGIINKIGTNQMAVCAKAQNKPFYVVAESFKFVRLFPLNQQDVPDKFKYKADTLKVAQTGQDLKEEHPWVDYTAPSLITLLFTDLGVLTPSAVSDELIKLYL
notes: also called eIFBα2
binding result [6]: binds
